Measurements reported in ChEMBL document CHEMBL3885881, “DrugMatrix”.

Organism: Rattus norvegicus
Assay: DrugMatrix - Regimen: Daily Repeat
Format: toxicity, organism-based, Sprague-Dawley
Design: regimen Daily Repeat, gender Male, age 6-8 weeks
Settings: in vivo, po, route oral GAVAGE, […]; for ABSOLUTE BASOPHIL / ABSOLUTE EOSINOPHIL / ABSOLUTE LYMPHOCYTE / ABSOLUTE MONOCYTE / ABSOLUTE SEGMENTED NEUTROPHIL / BASOPHIL / EOSINOPHIL / ERYTHROCYTE COUNT / HEMATOCRIT / HEMOGLOBIN / LEUKOCYTE COUNT / LYMPHOCYTE / MEAN CORPUSCULAR HEMOGLOBIN / MEAN CORPUSCULAR HEMOGLOBIN CONCENTRATION / MEAN CORPUSCULAR VOLUME / MONOCYTE / NEUTROPHIL / NUCLEATED RED BLOOD CELLS / PLATELET COUNT: tissue Blood; for ALANINE AMINOTRANSFERASE / ALBUMIN / ALKALINE PHOSPHATASE / ASPARTATE AMINOTRANSFERASE / BLOOD UREA NITROGEN / CARBON DIOXIDE / CHLORIDE / CHOLESTEROL / CREATINE PHOSPHOKINASE / CREATININE / GLUCOSE / LACTATE DEHYDROGENASE / LIPASE / PHOSPHORUS / POTASSIUM / SODIUM / TOTAL BILIRUBIN / TOTAL PROTEIN / URIC ACID: tissue Plasma
[1] = 12 mg/kg, 120 h, dose level Low, time 5 day
[2] = 380 mg/kg, 72 h, dose level High, time 3 day
[3] = 380 mg/kg, 120 h, dose level High, time 5 day

COc1ncnc(NS(=O)(=O)c2ccc(N)cc2)c1OC [SULFADOXINE]
ABSOLUTE BASOPHIL [1]: 0 CELLS/uL
ABSOLUTE EOSINOPHIL [1]: 0 CELLS/uL
ABSOLUTE LYMPHOCYTE [1]: 10205.33 CELLS/uL
ABSOLUTE MONOCYTE [1]: 178 CELLS/uL
ABSOLUTE SEGMENTED NEUTROPHIL [1]: 483.33 CELLS/uL
BASOPHIL [1]: 0%
EOSINOPHIL [1]: 0%
ERYTHROCYTE COUNT [1]: 5.46 x10E6/uL
HEMATOCRIT [1]: 34.5%
HEMOGLOBIN [1]: 13.53 G/DL
LEUKOCYTE COUNT [1]: 10.87 x10E3/uL
LYMPHOCYTE [1]: 94%
MEAN CORPUSCULAR HEMOGLOBIN [1]: 24.8 pg
MEAN CORPUSCULAR HEMOGLOBIN CONCENTRATION [1]: 39.27 G/DL
MEAN CORPUSCULAR VOLUME [1]: 63.17 fL
MONOCYTE [1]: 1.67%
NEUTROPHIL [1]: 4.33%
NUCLEATED RED BLOOD CELLS [1]: 0 /100WBC
PLATELET COUNT [1]: 1312.33 x10E3/uL
ALANINE AMINOTRANSFERASE [1]: 52 u/L
ALBUMIN [1]: 4.1 G/DL
ALKALINE PHOSPHATASE [1]: 476 u/L
ASPARTATE AMINOTRANSFERASE [1]: 74.33 u/L
BLOOD UREA NITROGEN [1]: 11.67 mg/dL
CARBON DIOXIDE [1]: 31.67 mmol/L
CHLORIDE [1]: 101.67 MEQ/L
CHOLESTEROL [1]: 65.33 mg/dL
CREATINE PHOSPHOKINASE [1]: 233 u/L
CREATININE [1]: 0.14 mg/dL
GLUCOSE [1]: 140.33 mg/dL
LACTATE DEHYDROGENASE [1]: 125.67 u/L
LIPASE [1]: 11.33 u/L
PHOSPHORUS [1]: 10.5 mg/dL
POTASSIUM [1]: 5.98 MEQ/L
SODIUM [1]: 148.87 MEQ/L
TOTAL BILIRUBIN [1]: 0.27 mg/dL
TOTAL PROTEIN [1]: 5.87 G/DL
URIC ACID [1]: 0.53 mg/dL
ABSOLUTE BASOPHIL [2]: 0 CELLS/uL
ABSOLUTE EOSINOPHIL [2]: 29.33 CELLS/uL
ABSOLUTE LYMPHOCYTE [2]: 8090 CELLS/uL
ABSOLUTE MONOCYTE [2]: 197 CELLS/uL
ABSOLUTE SEGMENTED NEUTROPHIL [2]: 650.33 CELLS/uL
BASOPHIL [2]: 0%
EOSINOPHIL [2]: 0.33%
ERYTHROCYTE COUNT [2]: 5.01 x10E6/uL
HEMATOCRIT [2]: 31.2%
HEMOGLOBIN [2]: 12.27 G/DL
LEUKOCYTE COUNT [2]: 8.97 x10E3/uL
LYMPHOCYTE [2]: 90%
MEAN CORPUSCULAR HEMOGLOBIN [2]: 24.6 pg
MEAN CORPUSCULAR HEMOGLOBIN CONCENTRATION [2]: 39.4 G/DL
MEAN CORPUSCULAR VOLUME [2]: 62.43 fL
MONOCYTE [2]: 2.33%
NEUTROPHIL [2]: 7.33%
NUCLEATED RED BLOOD CELLS [2]: 0 /100WBC
PLATELET COUNT [2]: 1128.67 x10E3/uL
ALANINE AMINOTRANSFERASE [2]: 92.33 u/L
ALBUMIN [2]: 3.93 G/DL
ALKALINE PHOSPHATASE [2]: 373.33 u/L
ASPARTATE AMINOTRANSFERASE [2]: 93.67 u/L
BLOOD UREA NITROGEN [2]: 13 mg/dL
CARBON DIOXIDE [2]: 32.33 mmol/L
CHLORIDE [2]: 99.67 MEQ/L
CHOLESTEROL [2]: 78 mg/dL
CREATINE PHOSPHOKINASE [2]: 280 u/L
CREATININE [2]: 0.14 mg/dL
GLUCOSE [2]: 143 mg/dL
LACTATE DEHYDROGENASE [2]: 116.67 u/L
LIPASE [2]: 11.67 u/L
PHOSPHORUS [2]: 9.13 mg/dL
POTASSIUM [2]: 5.99 MEQ/L
SODIUM [2]: 144.13 MEQ/L
TOTAL BILIRUBIN [2]: 0.2 mg/dL
TOTAL PROTEIN [2]: 5.5 G/DL
URIC ACID [2]: 0.37 mg/dL
ABSOLUTE BASOPHIL [3]: 0 CELLS/uL
ABSOLUTE EOSINOPHIL [3]: 0 CELLS/uL
ABSOLUTE LYMPHOCYTE [3]: 5345.67 CELLS/uL
ABSOLUTE MONOCYTE [3]: 97.67 CELLS/uL
ABSOLUTE SEGMENTED NEUTROPHIL [3]: 423.33 CELLS/uL
BASOPHIL [3]: 0%
EOSINOPHIL [3]: 0%
ERYTHROCYTE COUNT [3]: 5.09 x10E6/uL
HEMATOCRIT [3]: 32.47%
HEMOGLOBIN [3]: 12.83 G/DL
LEUKOCYTE COUNT [3]: 5.87 x10E3/uL
LYMPHOCYTE [3]: 91.33%
MEAN CORPUSCULAR HEMOGLOBIN [3]: 25.23 pg
MEAN CORPUSCULAR HEMOGLOBIN CONCENTRATION [3]: 39.53 G/DL
MEAN CORPUSCULAR VOLUME [3]: 63.77 fL
MONOCYTE [3]: 1.67%
NEUTROPHIL [3]: 7%
NUCLEATED RED BLOOD CELLS [3]: 0 /100WBC
PLATELET COUNT [3]: 1282.67 x10E3/uL
ALANINE AMINOTRANSFERASE [3]: 65.67 u/L
ALBUMIN [3]: 3.97 G/DL
ALKALINE PHOSPHATASE [3]: 341.33 u/L
ASPARTATE AMINOTRANSFERASE [3]: 76 u/L
BLOOD UREA NITROGEN [3]: 15 mg/dL
CARBON DIOXIDE [3]: 31.33 mmol/L
CHLORIDE [3]: 99.33 MEQ/L
CHOLESTEROL [3]: 75 mg/dL
CREATINE PHOSPHOKINASE [3]: 205.67 u/L
CREATININE [3]: 0.2 mg/dL
GLUCOSE [3]: 145 mg/dL
LACTATE DEHYDROGENASE [3]: 115.67 u/L
LIPASE [3]: 10.33 u/L
PHOSPHORUS [3]: 10.13 mg/dL
POTASSIUM [3]: 5.99 MEQ/L
SODIUM [3]: 144.77 MEQ/L
TOTAL BILIRUBIN [3]: 0.17 mg/dL
TOTAL PROTEIN [3]: 5.97 G/DL
URIC ACID [3]: 0.6 mg/dL
